Where no end group is shown, it is not given here. [ ]: non-standard residue; d: D form. pY = N[C@@H](Cc1ccc(OP(=O)(O)O)cc1)C(=O)O
Assays:
ERK [1] = assay: p-ERK in hippocampal lysates of naive mice after i.v. peptide; format: in vivo, mouse; settings: 10 mg/kg i.v., 3 hr
Description: (§1) Animals were anesthetized with pentobarbital (200 mg/kg i.p.) and decapitated, and the head was quickly immersed in liquid nitrogen for 4 s to rapidly cool the brain. The hippocampi were rapidly dissected on ice and homogenized in RIPA buffer, incubated on ice for 15 min, and centrifuged at 200,000×g for 10 min at 4° C. The supernatant was collected and stored at −80° C. until further analysis. TrkB was immunoprecipitated using TrkB antibody (1:1000, Millipore) and the lysates were incubated with 100 μL of protein A-Sepharose beads (Roche) overnight in 4° C. The beads/immune complexes were pelleted in a microcentrifuge and then resuspended in RIPA buffer and this procedure was repeated two additional times before adding 2×SDS PAGE sample buffer and boiled. After SDS PAGE, the gels were probed with TrkB and PLCγ1 antibody (1:1000, Cell signaling). Western blotting was conducted as previously described (He et al., 2010). Cell lysate and hippocampal homogenate were probed with p-PLCγ1 (pY783), PLCγ1, p-Akt (pS473), Akt, p-ERK (p44/p42) and ERK (1:1000, Cell signaling). The immunoreactivity of individual bands on western blots was measured by ImageJ software (National Institutes of Health) and normalized to PLCγ1, Akt or ERK contents. Equivalent protein loading among samples was monitored by β-actin (1:10000; Sigma) levels. […]

[2] = tested on: hippocampal neurons (CA3b); assay: NeuN and GFAP immunostaining of hippocampal CA3b 10 weeks after SE; format: in vivo, mouse
Excerpt: Neurons and astrocytes were visualized using antibodies against neuronal nuclei (mouse monoclonal to NeuN, 1:500; Millipore) and glial fibrillary acidic protein (rabbit polyclonal to GFAP, 1:1000; Sigma) detected with Alexafluor 488 coupled anti-mouse and Alexafluor 594 coupled anti-rabbit secondary antibodies (Molecular Probes), respectively. Images were captured using a Leica TCS SL confocal microscopy system equipped with a 63× oil-immersion objective lens. NeuN-positive cell counting was performed by an investigator blinded to the genotype and treatment conditions with ImageJ software (Ferreira, T. et al., (2011). The Image J User Guide) in a 260×260 μm field within the CA3b pyramidal cell layer. Mean counts were obtained from two adjacent rostral and two adjacent middle hippocampal sections ipsilateral to the infused amygdala.
Ten weeks following SE, mice were anesthetized with pentobarbital (200 mg/kg, i.p.) and underwent intra-cardiac perfusion with PBS containing heparin (5 U/ml) followed by 4% paraformaldehyde. Brains were removed, frozen by slow immersion in isopentane chilled in dry ice, cryoprotected, and sectioned. Serial 40 μm coronal sections were cut through the forebrain spanning the entire hippocampus. Adjacent sections at two levels relative to bregma (˜1.68 mm posterior designated “rostral”) or (˜2.32 mm posterior designated “middle”) were stained for NeuN and GFAP as previously described (Mouri, G. et al., (2008) Brain Res 1213:140-151) and mean counts of NeuN positive cells were obtained from two adjacent rostral and two adjacent middle hippocampal sections ipsilateral to the infused amygdala by an observer blinded to treatment.

ERK [3] = assay: BDNF-mediated increase of p-ERK in cultured cortical neurons (western blot); format: cell-based, rat; settings: 10 μM, 10-120 min pretreatment
Akt [4] = assay: BDNF-mediated increase of p-Akt in cultured cortical neurons (western blot); format: cell-based, rat; settings: 10 μM, 10-120 min pretreatment
anxiety-like behavior = assay: Light/dark box test of anxiety-like behavior 8 weeks after SE; format: in vivo, mouse; settings: 8 weeks post-SE; Scr vs PBS controls, pY816 vs Scr
Description: It was therefore tested whether this SE-induced behavioral abnormality could also be prevented by treatment with pY816 initiated following SE. To address this question, following completion of video-EEG recording during days 29-42, anxiety-like behavior was assessed using the light-dark emergence test (Bourin, M. et al., (2003) Eur J Pharmacol 463:55-65).
Specifically, a plexiglas arena (40×40×40 cm) was placed in a room with homogenous illumination (˜300 lux). The arena was subdivided into sixteen 10×10 cm squares by lines marked on the floor. Each mouse was placed in the center of the open field and allowed to explore freely the apparatus for 5 minutes. The apparatus ([…]) consisted of two acrylic compartments. The dark compartment (30×40 cm) and light compartment (40×40×40 cm, brightly illuminated at 600 lux) were separated by a divider with a 5.5×5.5 cm opening at floor level. Mice were placed into the dark side and allowed to move freely between the two chambers with the door open for 5 minutes. During behavior tests, a video camera was mounted directly above the arena to monitor animal activity and movement. An investigator unaware of the treatment reviewed the video and recorded: 1) line crossing (frequency of crossing grid lines with all four paws) and the frequency of rearing (standing on hind legs or leaning against the walls of the arena) to assess locomotor activity in open field test; and 2) the latency to first entry into lighted compartment (entering the lighted side with all four paws) and the total time spent on the lighted side to assess anxiety-like behavior in light/dark box test.
Following completion of video-EEG monitoring for recurrent seizures, all KA-infused mice were subjected to open field and light/dark box tests at 8 weeks post-SE. Control animals underwent infusion of PBS into the amygdala and subsequently i.v. infusion of Scr or pY816 peptide and were tested 8 weeks after PBS infusion. No differences were found between Scr and pY816 treated control animals and these groups were combined for analyses.

Akt [5] = assay: p-Akt in hippocampal lysates of naive mice after i.v. peptide; format: in vivo, mouse; settings: 10 mg/kg i.v., 3 hr
Description: as §1

| Substance | p-ERK in hippocampal lysates (ERK [1]) | reactive gliosis (enlarged GFAP-immunoreactive cells) in CA3b [2] | reduction of neuron loss ([2]; compared to Scr treatment) [%] | BDNF-mediated increase of the p-ERK/ERK ratio (quantified, FIG. 12) (ERK [3]) | BDNF-mediated increase of the p-Akt/Akt ratio (quantified, FIG. 11) (Akt [4]) | latency to enter the lighted compartment (anxiety-like behavior) | time spent in lighted compartment (anxiety-like behavior) | p-Akt in hippocampal lysates (Akt [5]) | reduction of neurons (NeuN immunoreactive cells) in CA3b hippocampus ([2]; compared to PBS-infused controls) [%] |
| --- | --- | --- | --- | --- | --- | --- | --- | --- | --- |
| YGRKKRRQRRR-LQNLAKASPVpYLDI (YGRKKRRQRRRLQNLAKASPV[pY]LDI) [pY816] | neither p-Akt nor p-ERK was affected | attenuated | ~30 | Neither the Phospho-Tat-TrkBY816 nor the Scr-phospho-Tat-TrkBY816 peptide inhibited | Neither the Phospho-Tat-TrkBY816 nor the Scr-phospho-Tat-TrkBY816 peptide inhibited | significantly reduced latency | spent increased time | neither p-Akt nor p-ERK was affected |  |
| YGRKKRRQRRRLVApYQLKIAPNDLS (YGRKKRRQRRRLVA[pY]QLKIAPNDLS) [Scr, reference compound] |  |  |  | Neither the Phospho-Tat-TrkBY816 nor the Scr-phospho-Tat-TrkBY816 peptide inhibited | Neither the Phospho-Tat-TrkBY816 nor the Scr-phospho-Tat-TrkBY816 peptide inhibited | prolonged latency | spent less time |  | ~50 |

Reference: patent US11129870B2, “Compositions and methods for uncoupling TrkB receptor from PLC gamma 1 for the treatment of epilepsy and anxiety-like disorder” (DUKE UNIVERSITY, priority 2010, dated 2021)
